Patent US20060069132A1, “Azolecarboxamide herbicides” (priority 2004, published 2006)

What was measured:
soybean = test: Test C pre-/postemergence herbicide test; type: in vivo, Glycine max
In short: (§1)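 Visual injury scores run from 0 (no effect) to 100 (complete control), assessed relative to untreated controls 12 to 14 days after treatment in the greenhouse. Chemicals were formulated in a non-phytotoxic solvent mixture with surfactant and applied to soil after planting or to emerged plants at the 1- to 4-leaf stage.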

morningglory = test: Test C pre-/postemergence herbicide test; type: in vivo, Ipomoea coccinea; set-up: key to Plant response rating, Morningglory: 0 = no effect, 100 = complete control
In short: as §1

yellow nutsedge = test: Test C pre-/postemergence herbicide test; type: in vivo, Cyperus esculentus
In short: as §1

giant foxtail = test: Test C pre-/postemergence herbicide test; type: in vivo, Setaria faberi
In short: as §1

ducksalad = test: Test C flooded paddy test; type: in vivo, Heteranthera limosa; conditions: for Plant response rating, Ducksalad: 500 g ai/ha, visual rating after 12 to 14 days
woolly cupgrass = test: Test C pre-/postemergence herbicide test; type: in vivo, Eriochloa villosa
In short: as §1

barnyardgrass = test: Test C flooded paddy test; type: in vivo, Echinochloa crus-galli; conditions: for Plant response rating, Barnyardgrass: 500 g ai/ha, visual rating after 12 to 14 days
In short: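 Postemergence sprays applied to plants 2 to 18 cm tall (1- to 4-leaf stage); paddy species grown to 2-leaf stage under flooding. After 12 to 14 days in greenhouse, visual rating versus untreated controls on 0–100 scale (0 no effect, 100 complete control).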

[1] = Postemergence, 250 g ai/ha, scale 0 to 100, 0 no effect, 100 complete control
[2] = postemergence, 125 g ai/ha, scale 0 to 100
[3] = postemergence, 62 g ai/ha, scale 0 to 100
[4] = 125 g ai/ha, scale 0 to 100 (0 no effect, 100 complete control)
[5] = 250 g ai/ha, scale of 0 to 100, 0 is no effect, 100 is complete control
[6] = scale 0 to 100 (0 no effect, 100 complete control)
[7] = 62 g ai/ha, scale 0 to 100 (0 no effect, 100 complete control)
[8] = 62 g ai/ha, preemergence, scale 0 to 100
[9] = 250 g ai/ha, scale 0-100, preemergence
[10] = 500 g ai/ha, scale 0 to 100 (0 no effect, 100 complete control), visual, 12 to 14 days, preemergence
[11] = 125 g ai/ha, scale 0 (no effect) to 100 (complete control), visual, 12 to 14 days, preemergence
[12] = Preemergence, 500 g ai/ha, scale 0 to 100, 0 no effect, 100 complete control

Row | SMILES | Ducksalad plant response rating (ducksalad; 62 g ai/ha, scale 0 to 100) | Ducksalad plant response rating (ducksalad; [4]) | Ducksalad plant response rating (ducksalad; [5]) | Plant response rating, Ducksalad (ducksalad; [6]) | Barnyardgrass plant response rating (barnyardgrass; [7]) | Barnyardgrass plant response rating (barnyardgrass; [4]) | Barnyardgrass plant response rating (barnyardgrass; [5]) | Plant response rating, Barnyardgrass (barnyardgrass; [6]) | Plant response rating, Soybean (soybean; [8]) | Plant response rating, Soybean (soybean; [9]) | Plant response rating, Morningglory (morningglory; [8]) | Plant response rating, Morningglory (morningglory; [9]) | Plant response rating, Morningglory (morningglory; [10]) | Plant response rating, Nutsedge, Yellow (yellow nutsedge; [8]) | Plant response rating, Nutsedge, Yellow (yellow nutsedge; [9]) | Plant response rating, Nutsedge, Yellow (yellow nutsedge; [10]) | Plant response rating, Foxtail, Giant (giant foxtail; [8]) | Plant response rating, Foxtail, Giant (giant foxtail; [9]) | Plant response rating, Cupgrass, Woolly (woolly cupgrass; [8]) | Plant response rating, Cupgrass, Woolly (woolly cupgrass; [9]) | other results
1 | CCOC(=O)c1cccc(NC(=O)c2cc(C3(C)CC3)nn2CC)c1 [Compound 295] | 0 | 0 | 25 | 30 | 0 | 15 | 25 | 40 | – | – | – | – | – | – | – | – | – | – | – | – | Plant response rating, Soybean (soybean; [1]): 55; Plant response rating, Soybean (soybean; [2]): 50; Plant response rating, Soybean (soybean; [3]): 50; Plant response rating, Morningglory (morningglory; [1]): 30; Plant response rating, Morningglory (morningglory; [2]): 10; Plant response rating, Morningglory (morningglory; [3]): 10; Plant response rating, Nutsedge, Yellow (yellow nutsedge; [1]): 5; Plant response rating, Nutsedge, Yellow (yellow nutsedge; [2]): 5; Plant response rating, Nutsedge, Yellow (yellow nutsedge; [3]): 5; Plant response rating, Foxtail, Giant (giant foxtail; [1]): 40; Plant response rating, Foxtail, Giant (giant foxtail; [2]): 35; Plant response rating, Foxtail, Giant (giant foxtail; [3]): 30; Plant response rating, Cupgrass, Woolly (woolly cupgrass; [1]): 15; Plant response rating, Cupgrass, Woolly (woolly cupgrass; [2]): 15; Plant response rating, Cupgrass, Woolly (woolly cupgrass; [3]): 10
2 | CCc1nn(C(C)C)nc1C(=O)Nc1cccc(C(=O)N(C)CC)c1 [Compound 386] | 25 | 60 | 85 | 85 | 30 | 50 | 80 | 95 | 90 | 95 | 55 | 100 | 100 | 0 | 40 | 60 | 80 | 90 | 50 | 95 | Plant response rating (0 = no effect, 100 = complete control), Soybean (soybean; 125 g ai/ha, preemergence): 90; Plant response rating, Soybean (soybean; [10]): 95; Plant response rating (0 = no effect, 100 = complete control), Morningglory (morningglory; 125 g ai/ha, preemergence): 95; Plant response rating (0 = no effect, 100 = complete control), Nutsedge, Yellow (yellow nutsedge; 125 g ai/ha, preemergence): 10; Plant response rating (0 = no effect, 100 = complete control), Foxtail, Giant (giant foxtail; 125 g ai/ha, preemergence): 90; Plant response rating, Foxtail, Giant (giant foxtail; [10]): 100; Plant response rating (0 = no effect, 100 = complete control), Cupgrass, Woolly (woolly cupgrass; 125 g ai/ha, preemergence): 90; Plant response rating, Cupgrass, Woolly (woolly cupgrass; [10]): 95
3 | CCc1nn(C(C)C)nc1C(=O)Nc1cccc(C(=S)N(C)C)c1 [Compound 409] | 30 | 30 | 80 | 85 | 20 | 20 | 40 | 60 | 0 | – | 10 | – | 100 | 0 | – | 55 | 30 | 95 | 40 | 80 | Plant response rating (0 = no effect, 100 = complete control), Soybean (soybean; 125 g ai/ha, preemergence): 80; Plant response rating, Soybean (soybean; [10]): 100; Plant response rating (0 = no effect, 100 = complete control), Morningglory (morningglory; 125 g ai/ha, preemergence): 40; Plant response rating (0 = no effect, 100 = complete control), Nutsedge, Yellow (yellow nutsedge; 125 g ai/ha, preemergence): 0; Plant response rating (0 = no effect, 100 = complete control), Foxtail, Giant (giant foxtail; 125 g ai/ha, preemergence): 85; Plant response rating, Foxtail, Giant (giant foxtail; [10]): 95; Plant response rating (0 = no effect, 100 = complete control), Cupgrass, Woolly (woolly cupgrass; 125 g ai/ha, preemergence): 55; Plant response rating, Cupgrass, Woolly (woolly cupgrass; [10]): 80
4 | CCN1N=C(C(C)(C)C)CC1C(=O)Nc1cc(C(=O)N2CC=CC2)ccc1F (racemic) [Compound 310] | 45 | 75 | 80 | 90 | 35 | 50 | 70 | 90 | 0 | 30 | 0 | 5 | 10 | 0 | 0 | 15 | 5 | 85 | 5 | 70 | Plant response rating, Morningglory (morningglory; [11]): 5; Plant response rating, Nutsedge, Yellow (yellow nutsedge; [11]): 0; Plant response rating, Foxtail, Giant (giant foxtail; [11]): 40; Plant response rating, Foxtail, Giant (giant foxtail; [10]): 100; Plant response rating, Cupgrass, Woolly (woolly cupgrass; [11]): 10
5 | CCNC(=O)c1ccc(F)c(NC(=O)c2cn(C(C)(C)C)nc2CC)c1 [Compound 193] | – | 70 | 90 | 90 | 30 | 55 | 85 | 90 | 30 | 50 | 20 | 100 | – | 0 | 10 | – | 40 | 80 | 10 | 60 | Plant response rating, Soybean (soybean; [11]): 30; Soybean plant response rating (soybean; [12]): 100; Plant response rating, Morningglory (morningglory; [11]): 20; Morningglory plant response rating (morningglory; [12]): 100; Plant response rating, Nutsedge, Yellow (yellow nutsedge; [11]): 0; Nutsedge, Yellow plant response rating (yellow nutsedge; [12]): 60; Plant response rating, Foxtail, Giant (giant foxtail; [11]): 50; Foxtail, Giant plant response rating (giant foxtail; [12]): 100; Ducksalad plant response rating (ducksalad; [7]): 55; Plant response rating, Cupgrass, Woolly (woolly cupgrass; [11]): 40; Cupgrass, Woolly plant response rating (woolly cupgrass; [12]): 70
